Values of other authors, collected in patent US6872696B2, “Particle with substituted polyvinyl alcohol coating” (Genencor International, Inc., priority 2000, dated 2005).

Details: neutral unreacted compound in water, 25 degrees C

| SMILES | Solubility g/100 ml H2O |
| --- | --- |
| CCS [ethanethiol] | 0.67 g/100 ml H2O |
| O=C(O)/C=C\C(=O)O [maleic] | infinite |
| OCCS [2-mercaptoethanol] | infinite |
